Here are results for 1 compound from article PMC9319939, “Siccanin Is a Dual-Target Inhibitor of Plasmodium falciparum Mitochondrial Complex II and Complex III” (Pharmaceuticals, 2022).

For experiment [1], the system named is malate:quinone oxidoreductase (MQO). Description: MQO activity, crude mitochondrial fraction, DCIP reduction. Type of experiment: biochemical, Plasmodium falciparum. As to the method:
(§1) A synchronized parasite culture was grown for 64 h and a crude mitochondrial fraction was prepared from trophozoite-stage cells (as confirmed by Giemsa staining). Infected red blood cells were collected by centrifugation at 800× g for 5 min at 4 °C and incubated for 5 min at room temperature with 40 mL of 0.075% (w/v) saponin in AIM buffer (120 mM KCl, 20 mM NaCl, 10 mM PIPES (1,4-piperazinediethanesulfonic acid) buffer [pH 6.7], 1 mM MgCl2, 5 mM glucose). Released parasites were collected by centrifugation at 2780× g for 7 min at 4 °C and washed three times with AIM buffer. […]
(§2) Complex II, DHODH, MQO, NDH2, G3PDH, and dihydroorotate-cytochrome c (DHO-cyt c) reductase activities were measured, as described previously, using a V-660 spectrophotometer (JASCO; Tokyo, Japan). Briefly, complex II activity was measured at 25 °C in a 1 mL reaction mixture containing 45 μM 2,6-dichlorophenolidophenol (DCIP), 100 μM ubiquinone-2 (UQ2), and 2 mM KCN in 50 mM potassium phosphate buffer, pH 8.0. DHODH, MQO, and G3PDH activities were measured at 25 °C in 1 mL of the reaction mixture containing 45 μM DCIP, 100 μM UQ2, and 2 mM KCN in 30 mM Tris-HCl buffer, pH 8.0. […] NDH2 activity was measured at 25 °C in 1 mL of the reaction mixture containing 100 µM UQ1 and 2 mM KCN in 50 mM potassium phosphate buffer, pH 8.0. […]

The subject of the next experiment is Mammal complex II. The conditions noted are these: ref Mogi et al. [34]; read-out: Siccanin IC50, Mammal, Complex II; cited from earlier work.
Experiment [2] concerns P. falciparum complex III. Description: DHO-cytochrome c reductase activity (DHODH coupled to complex III). Type of experiment: biochemical. The settings on record: ratio mammalian / P. falciparum IC50. As for the experimental part:
(§3) A synchronized parasite culture was grown for 64 h and a crude mitochondrial fraction was prepared from trophozoite-stage cells (as confirmed by Giemsa staining). Infected red blood cells were collected by centrifugation at 800× g for 5 min at 4 °C and incubated for 5 min at room temperature with 40 mL of 0.075% (w/v) saponin in AIM buffer (120 mM KCl, 20 mM NaCl, 10 mM PIPES (1,4-piperazinediethanesulfonic acid) buffer [pH 6.7], 1 mM MgCl2, 5 mM glucose). Released parasites were collected by centrifugation at 2780× g for 7 min at 4 °C and washed three times with AIM buffer. P. falciparum was suspended in MSE buffer [225 mM mannitol, 75 mM sucrose, 0.1 mM ethylenediaminetetraacetic acid (EDTA), 3 mM Tris-HCl buffer, pH 7.4] containing 1 mM phenylmethylsulphonyl fluoride, and disrupted by nitrogen cavitation at 1200 psi using a 4639 Cell Disruption Bomb (Parr Instrument Company; Moline, IL, USA). The unbroken cells and cell debris were removed by centrifugation at 800× g for 5 min at 4 °C. The supernatant was centrifuged at 5000× g for 20 min at 4 °C. The resulting pellet was suspended in 200–400 μL MSE buffer and used as crude mitochondrial fraction for all enzymatic assays, as described previously.
(§4) DHO-cyt c activity was measured at 25 °C in 1 mL of the reaction mixture containing 20 μM cytochrome c and 2 mM KCN in 30 mM Tris-HCl buffer, pH 8.0. The reduction of cytochrome c was monitored at 550 nm after initiation of the reaction by addition of 500 μM dihydroorotate. Various concentrations of siccanin (formulated in DMSO) were added to the reaction mixtures before the initiation of the reactions. In all assays, the final concentration of DMSO was fixed at 0.1% (v/v). IC50 values were calculated using Prism® ver.6.01.

Experiment [3] addresses T1, P. falciparum complex III (Plasmodium falciparum, UniProt Q02768).
T1 construct: used as crude mitochondrial fraction for all enzymatic assays; endogenous in cells; host or cells: P. falciparum 3D7 trophozoite-stage parasites, crude mitochondrial fraction
The description is as above. It counts as biochemical. As to the method:
as §3, §4

Experiment [4] has as its system Dd2_ELQ300 (cyt b-I22L mutation at Qi site). The experiment in a line: Growth inhibition of Dd2_ELQ300 (ELQ300-resistant). It counts as cell-based. The settings on record: Plasmodium falciparum, read-out: Growth inhibition EC50, ELQ300. As to the method: P. falciparum 3D7-yDHODH was prepared and maintained as described previously. P. falciparum Dd2, and Dd2-derived mutant strains were kindly provided by David A. Fidock, and maintained at Nagasaki University essentially as described in reference, except without supplementation with WR99210.
Synchronized ring-form parasites (0.3% parasitemia) were prepared in complete medium containing different concentration of various compounds (at a fixed final DMSO concentration of 0.1% (v/v)) and distributed to 96-well plates at 100 μL/well. After 72 h of incubation, parasite growth was monitored by the previously described lactate dehydrogenase (PfLDH)-based assay method; plates were read using a SpectraMax® Paradigm spectrophotometer (Molecular Devices, Inc.; San Jose, CA, USA). EC50 values were calculated using Prism® ver.6.01 (GraphPad; San Diego, CA, USA). Values are presented as the means of three independent experiments.

Experiment [5] concerns glycerol-3-phosphate dehydrogenase (G3PDH). The experiment in a line: G3PDH activity, crude mitochondrial fraction, DCIP reduction. Type of experiment: biochemical, Plasmodium falciparum. As for the experimental part: as §1, §2
Experiment [6] relates to P. falciparum (synchronized ring-form parasites). Description: Assessment of parasite survival, Giemsa-stained smears. It counts as cell-based, Plasmodium falciparum. The settings on record: 50 µM siccanin; 16, 24, 32, 48 h. As to the method: Synchronized ring-form parasites (2% parasitemia) were prepared in complete medium containing 50 µM siccanin (at a fixed final DMSO concentration of 0.1% (v/v)) and distributed to 24-well plates at 1 mL/well. After incubation for 16, 24, 32, and 48 h, parasitemia was assessed under the microscope using thin blood smears stained with Giemsa.

Another experiment has as its target P. falciparum complex II (Plasmodium falciparum, UniProt Q8I5S5+Q8IJU2). The experiment in a line: succinate:ubiquinone reductase (SQR) activity, crude mitochondrial fraction, DCIP reduction. Type of experiment: biochemical. The conditions noted are these: siccanin 10 μM; read-out: Relative residual activity of SQR. As to the method:
as §1, §2

T1 sequence (Q02768 whole entry, one chain of several): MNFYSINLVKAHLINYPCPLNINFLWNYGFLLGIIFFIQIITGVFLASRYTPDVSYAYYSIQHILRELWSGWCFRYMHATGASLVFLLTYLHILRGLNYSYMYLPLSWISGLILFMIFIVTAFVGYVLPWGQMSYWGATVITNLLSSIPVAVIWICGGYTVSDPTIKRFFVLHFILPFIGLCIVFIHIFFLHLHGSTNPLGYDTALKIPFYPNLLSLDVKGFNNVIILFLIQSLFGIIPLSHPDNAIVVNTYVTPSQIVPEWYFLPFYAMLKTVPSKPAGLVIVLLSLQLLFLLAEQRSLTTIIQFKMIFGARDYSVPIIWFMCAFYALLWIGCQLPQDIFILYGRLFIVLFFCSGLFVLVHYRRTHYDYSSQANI
Chain of P. falciparum complex II (Q8IJ66 entry or part of it): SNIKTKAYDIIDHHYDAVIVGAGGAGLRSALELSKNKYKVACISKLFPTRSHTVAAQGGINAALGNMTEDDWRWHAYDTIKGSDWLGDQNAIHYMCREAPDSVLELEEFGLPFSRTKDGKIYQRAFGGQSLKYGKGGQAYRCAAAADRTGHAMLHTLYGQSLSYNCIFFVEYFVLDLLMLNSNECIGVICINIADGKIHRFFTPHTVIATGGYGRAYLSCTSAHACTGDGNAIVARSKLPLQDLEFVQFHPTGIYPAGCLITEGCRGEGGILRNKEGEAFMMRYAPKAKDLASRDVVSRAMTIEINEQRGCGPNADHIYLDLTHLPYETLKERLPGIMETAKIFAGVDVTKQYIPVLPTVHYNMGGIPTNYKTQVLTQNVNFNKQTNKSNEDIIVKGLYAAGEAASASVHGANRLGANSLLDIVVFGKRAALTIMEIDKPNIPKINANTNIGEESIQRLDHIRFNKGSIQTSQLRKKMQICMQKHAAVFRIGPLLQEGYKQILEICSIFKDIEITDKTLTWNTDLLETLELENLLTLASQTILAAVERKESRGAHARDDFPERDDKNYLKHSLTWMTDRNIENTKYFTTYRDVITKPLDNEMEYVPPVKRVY
Chain of P. falciparum complex II (Q8IJU2 entry or part of it): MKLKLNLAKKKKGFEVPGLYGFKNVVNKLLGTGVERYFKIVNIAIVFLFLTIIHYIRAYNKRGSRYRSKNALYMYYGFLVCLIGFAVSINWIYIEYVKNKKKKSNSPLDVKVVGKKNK
Chain of P. falciparum complex II (Q8I5S5 entry or part of it): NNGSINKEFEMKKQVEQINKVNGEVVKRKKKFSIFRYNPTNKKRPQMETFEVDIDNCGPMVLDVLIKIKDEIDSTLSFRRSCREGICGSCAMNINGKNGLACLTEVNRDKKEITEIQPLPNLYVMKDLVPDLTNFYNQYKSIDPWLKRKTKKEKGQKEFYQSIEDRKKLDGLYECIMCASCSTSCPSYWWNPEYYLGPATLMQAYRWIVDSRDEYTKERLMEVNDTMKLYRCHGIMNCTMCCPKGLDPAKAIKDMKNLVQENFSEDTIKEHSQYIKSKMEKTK

Turning to `Cc1cc(O)c2c(c1)O[C@@]1(C)CC[C@H]3C(C)(C)CCC[C@]34CO[C@@H]2[C@H]41` [Siccanin], in experiment [1] (10 µM), the “Effect on MQO activity” value is “did not inhibit”. Also, in experiment [1] (siccanin 10 μM), the “Relative residual activity of MQO” value is given as 109.2 ± 2.0%. For the same compound, the 50% inhibitory concentration (IC50) in the experiment with Mammal complex II was 861 µM; in experiment [3] (P. falciparum crude mitochondrial fraction, read-out: Complex III (DHO-cyt c activity) IC50) it was 8.39 µM. The “Selectivity, Complex III” value in experiment [2] is reported as above 60. The “Effect on DHO-cyt c activity” value in experiment [3] (60 μM) is “completely inhibits”. Besides, the concentration giving a half-maximal response (EC50) in experiment [4] came out at 18.7 µM. In addition, the “Effect on G3PDH activity” value in experiment [5] (10 µM) is on record as “weakly inhibited”. Besides, the “Relative residual activity of G3PDH” value in experiment [5] (siccanin 10 μM) stood at 72.5 ± 4.0%. For the same compound, in experiment [6], the “Live parasites under the microscope” value is given as “could not detect live parasites”. In addition, at P. falciparum complex II, the remaining activity at 10 µM worked out at 2.7 ± 6.5%.

A word on the IC50: it is the concentration at which inhibition is half-maximal. In general, EC50 refers to the concentration at which the effect is half-maximal.
